The target of data set [1] is T1, NAD(P)H dehydrogenase [quinone] 1 (Homo sapiens, UniProt P15559). As to the kind of experiment: Prodrug activation assessed as human NQO1-mediated compound reduction by measuring specific enzyme activity at 100 uM measured every 20 mins by HPLC based UV-Vis method.
In data set [2] the target is T1, NAD(P)H dehydrogenase [quinone] 1. As to the kind of experiment: Prodrug activation assessed as human NQO1-mediated compound reduction by measuring specific enzyme activity at 100 uM measured every 20 mins by HPLC based UV-Vis method relative to CB1954.
Data set [3] in a line: Prodrug activation assessed as Escherichia coli NR-mediated compound reduction by measuring specific enzyme activity at 100 uM measured every 20 mins by HPLC based UV-Vis method.
Data set [4] is described as follows: Prodrug activation assessed as Escherichia coli NR-mediated compound reduction by measuring specific enzyme activity at 100 uM measured every 20 mins by HPLC based UV-vis method relative to CB1954.
Data set [5] can be described thus: Cytotoxicity against Chinese hamster F179 transformed cells assessed as reduction in cell viability after 3 days by SRB assay. The class given is toxicity, cell-based, Cricetulus griseus. For orientation: The SRB assay estimates cell density from bound dye.
Data set [6] can be described thus: Cytotoxicity against Chinese hamster DT7 cells expressing human NQO1 assessed as reduction in cell viability after 3 days by SRB assay. The class given is functional, cell-based, Cricetulus griseus.
Data set [7] can be described thus: Cytotoxicity against Chinese hamster T116 cells expressing Escherichia coli Nitroreductase assessed as reduction in cell viability after 3 days by SRB assay. The format is functional, Cricetulus griseus.
Data set [8] in a line: Cytotoxicity against Chinese hamster 186/6 cells expressing rat NQO1 assessed as reduction in cell viability after 3 days by SRB assay. The class given is functional, cell-based, Cricetulus griseus.
Data set [9] has as its target T1, NAD(P)H dehydrogenase [quinone] 1. As to the kind of experiment: Drug metabolism assessed as human NQO1-mediated compound reduction by measuring specific enzyme activity at 100 uM measured every 20 mins by HPLC based UV-Vis method. The format is ADME.
Data set [10] in a line: Drug metabolism assessed as Escherichia coli NR-mediated compound reduction by measuring specific enzyme activity at 100 uM measured every 20 mins by HPLC based UV-Vis method. The format is ADME.

The source of these data is ChEMBL document CHEMBL3872239, “Studies relating to the synthesis, enzymatic reduction and cytotoxicity of a series of nitroaromatic prodrugs” (Bioorg Med Chem Lett, 2016).

T1 sequence (P15559 whole entry): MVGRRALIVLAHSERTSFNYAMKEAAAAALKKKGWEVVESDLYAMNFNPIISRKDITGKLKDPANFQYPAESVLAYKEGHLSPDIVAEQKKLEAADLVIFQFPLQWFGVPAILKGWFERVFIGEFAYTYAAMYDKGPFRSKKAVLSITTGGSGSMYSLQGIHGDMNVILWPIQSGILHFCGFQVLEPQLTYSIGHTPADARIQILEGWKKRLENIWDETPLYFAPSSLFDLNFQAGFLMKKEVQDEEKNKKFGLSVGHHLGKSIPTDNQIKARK

In general, IC50 refers to the concentration that inhibits the measured activity by half. Take `O=[N+]([O-])c1ccc(N2Cc3ccccc3CC2CCl)c([N+](=O)[O-])c1` (stereo unspecified): the Activity in data set [1] is 0.0033 µmol/min/mg; in data set [3], 0.254 µmol/min/mg. Also, the “fold change (FC)” value in data set [2] was determined as 0.532; in [4], 0.137. For the same compound, the IC50 turned out to be 49 µM in data set [5], 43.1 µM in [6], 1.2 µM in data set [7] and 36.6 µM in data set [8].
Regarding `O=[N+]([O-])c1ccc(N2Cc3ccccc3CC2CCl)cc1` (stereo unspecified), the Activity was below 0.0001 µmol/min/mg in [1] and below 0.01 µmol/min/mg in [3]. For the same compound, the “fold change (FC)” value is on record as below 0.01 in data set [2] and below 0.001 in data set [4]. For the same compound, the IC50 in [5] was determined as 3.3 µM; in [6], 2.8 µM; in [7], 3.1 µM; in data set [8] it was 2.9 µM.
Regarding `O=[N+]([O-])c1cc(C(F)(F)F)ccc1N1Cc2ccccc2CC1CCl` (stereo unspecified), the Activity in data set [1] is 0.0177 µmol/min/mg; in data set [3] it was below 0.01 µmol/min/mg. Besides, the “fold change (FC)” value in data set [2] is 2.855; in data set [4], below 0.001. Also, the half-inhibitory concentration (IC50) came out at 36.6 µM in data set [5], 31.2 µM in [6], 39.1 µM in [7] and 34.4 µM in data set [8].
As to `O=[N+]([O-])c1ccc(N2Cc3ccccc3CC2CCl)c(C(F)(F)F)c1` (stereo unspecified), the results for the Activity in data set [1] and in data set [3] were 0.027 µmol/min/mg and 0.166 µmol/min/mg, respectively. The “fold change (FC)” value was 4.355 in data set [2] and 0.089 in [4]. Moreover, the IC50 stood at 37.8 µM in data set [5], 27.5 µM in data set [6], 3.1 µM in data set [7] and 22.6 µM in data set [8].
Take `O=[N+]([O-])c1ccc(N2Cc3ccccc3CC2CCl)cc1C(F)(F)F` (stereo unspecified): the results for the Activity in data set [1] and in data set [3] were 0.012 µmol/min/mg and 0.106 µmol/min/mg, respectively. Moreover, the entries for the “fold change (FC)” value in data set [2] and in [4] were 1.936 and 0.057, respectively. The IC50 came out at 7.3 µM in data set [5], 5.9 µM in [6], 2.9 µM in data set [7] and 5.8 µM in [8].
`NC(=O)c1cc(N2CC2)c([N+](=O)[O-])cc1[N+](=O)[O-]` [TRETAZICAR]: the half-maximal inhibitory concentration (IC50) in data set [5] amounted to 196 µM; in data set [6], 1.5 µM; in data set [7] it was 0.03 µM; in data set [8] it was 0.05 µM. Moreover, the Activity in [9] was 0.0062 µmol/min/mg; in [10], 1.86 µmol/min/mg.
